Read-outs that look alike come from different tables or passages of the source.
What was measured:
Cd1 = assay: microplate specificity test with on- and off-target heavy metals (fluorescence); type: cell-based, E. coli; conditions: on-target = 1, no-toxin control = 0; As 1.3, Cd 0.44, Cr(VI) 2, Cu 20, Pb 1, Hg 0.1, Co 20, Fe 500, Ni 1.7, Zn 7.6 μM
Source text: (§1) Each column represents the fluorescence response of a strain to the on-target metal (normalized to “1”) and all off-target metals, where “0” represents the unchanged response for the no-toxin control.
(§2) Although the ability to sense cobalt, iron, nickel, and zinc is of secondary importance, these heavy metals were included as potential off-target inducers because they may be present in the natural water supply under test. […] This combinatorial logic was implemented in algorithms.

Cr5 = assay: as above; type: cell-based, E. coli; conditions: on-target = 1, no-toxin control = 0; As 1.3, Cd 0.44, Cr(VI) 2, Cu 20, Pb 1, Hg 0.1, Co 20, Fe 500, Ni 1.7, Zn 7.6 μM
Source text: as §1, §2

Cu1 = assay: as above; type: cell-based, E. coli; conditions: on-target = 1, no-toxin control = 0; As 1.3, Cd 0.44, Cr(VI) 2, Cu 20, Pb 1, Hg 0.1, Co 20, Fe 500, Ni 1.7, Zn 7.6 μM
Source text: as §1, §2

Hg3 = assay: as above; type: cell-based, E. coli; conditions: on-target = 1, no-toxin control = 0, As 1.3, Cd 0.44, Cr(VI) 2, Cu 20, Pb 1, Hg 0.1, Co 20, Fe 500, Ni 1.7, Zn 7.6 μM
Source text: as §1, §2

Pb2 = assay: as above; type: cell-based, E. coli; conditions: on-target = 1, no-toxin control = 0; As 1.3, Cd 0.44, Cr(VI) 2, Cu 20, Pb 1, Hg 0.1, Co 20, Fe 500, Ni 1.7, Zn 7.6 μM
Source text: as §1, §2

E. coli MG1655 = type: cell-based; conditions: for Number DE Genes: false discovery rate below 1%
Source text: RNA-Seq results for promoter activation in E. coli MG1655 in response to single and multiple toxin exposures at low and high concentrations: Our analysis of the sequencing data from RNA-Seq experiments to determine candidate genes that are induced upon toxin exposure consisted of three main tasks: sequence alignment, quantification of gene expression, and identification of differentially expressed genes. Sequence alignment: Reads were aligned to the reference E. coli K-12 substr. MG1655 genome using a tolerance of at most two mismatches per alignment to protect against sequencing errors. The alignment was performed using Bowtie software, 5 which is known to be very efficient in aligning reads to a reference genome. Without being limiting, Bowtie software 5 can be used for the alignment. Those skilled in the art will appreciate that there are many such software programs for performing alignments.
Quantification of gene expression: The expression level of each gene was determined as a function of the number of aligned reads mapping to the gene. […] Additionally, we implemented our own algorithms for sequence alignment and quantification of gene expression in order to crosscheck all results.
Identification of differentially expressed genes: Finally, a set of statistical and information theory algorithms were applied in order to extract not only differentially expressed (DE) genes for each toxin with respect to the control samples (pure water) but also toxin-specific genes. DESeq is a standard tool for identifying DE genes that allowed us to select sensitive genes with differential expression between the control samples (pure water) and the cells exposed to toxin. It assumes that the number of counts for each gene across experimental replicates follows a negative binomial distribution (8, 9). We considered genes with a False Discovery Rate (FDR) lower than 1% as DE in order to ensure statistically robust DE genes. […] Additionally, genes with the largest number of counts and expression levels are preferable in order to maximize the signal-to-noise ratio. When it is not possible to find toxin-specific genes, the next generation of good candidates is formed by those genes satisfying the above properties for a small subset of toxins (multiple-toxin response). It is desirable to have single-toxin-specific genes for several of the toxins in the combination in order to determine toxin-specific multi-gene-responses by means of logical operations. […] Therefore, we have developed information theoretic measures to improve the toxin separability. The core idea of the approach is that low entropies (or highly informative genes) correspond to toxin-specific genes, while large entropies (low information) are associated with scenarios in which DE fold-changes across different toxins are similar and should be discarded.
Milestone 2.1: Expose target cells to toxins of interest over four orders of magnitude of concentration and extract RNA: Three strains of bacteria were exposed to relevant levels of all toxins and extracted RNA. The toxin exposure protocol involves first growing a culture of bacterial cells to mid-log phase (OD≤0.2). […] Finally, cellular RNA was stabilized using Qiagen RNA Protect reagent, the cells were centrifuged, and the pellet was frozen at −80° C. To investigate the cellular RNA response to toxin insult, we exposed E. coli MG1655, E. coli LABEC01, and B. subtilis 168 cells to the toxins and concentrations shown in Table 7 and extracted RNA.
Milestone 2.5: Prepare isolated RNA for Illumina sequencing using vendor provided reagents and carry out sequencing: We have prepared libraries and carried out sequencing for all toxins of interest.

E. coli MG1655/Pb7 = assay: 8-strain chip induction (fluorescence induction ratio); type: cell-based; conditions: toxin at t=0, pure water at t=2 hours; arsenic 0.2, cadmium 0.05, chromium(VI) 0.5, copper 5, lead 1.8 μM
Source text: An overview of the sensor can be seen in FIG. 39. In order to acquire the large amount of data required to successfully train the classifier, five replicates of the fully self-contained device prototype were built, in which the microfluidic devices are mounted and imaged using custom-designed optics as shown in some embodiments herein (Milestone 6.9). The majority of the data for this project was acquired using a novel microfluidic device capable of housing eight different bacterial strains that receive media from a shared source. […] The design was expanded to house 18 strains and we have begun taking data with this new chip to provide larger datasets to the classifier. A detailed CAD drawing of this device can be seen in FIG. 56. The 18 cell trapping regions are vacuum-loaded from 18 downstream fluidic ports. Long, serpentine channels upstream of the trapping regions serve as fluidic buffer zones to prevent the cross-contamination of strains while loading. The toxin concentration is controlled dynamically by a peristaltic pump that mixes a water/toxin combination (representing the source water stream) with a concentrated medium stock.
In each panel, the time series data for the “on-target” responding strain is plotted in bold.

Row | Compound | fluorescence response of strain Cd1 (on-target cadmium) (Cd1) | fluorescence response of strain Cr5 (on-target chromium(VI)) (Cr5) | fluorescence response of strain Cu1 (on-target copper) (Cu1) | fluorescence response of strain Hg3 (on-target mercury) (Hg3) | fluorescence response of strain Pb2 (on-target lead) (Pb2) | response of the arsR promoter (E. coli MG1655; RNA-Seq mean fold change) | Number DE Genes (E. coli MG1655; high concentration) | Number DE Genes (E. coli MG1655; low concentration) | GFP response of strain Pb7 (E. coli MG1655/Pb7) | fluorescence response of strain Hg3 (on-target mercury) (Hg3; listed as chromium(VI)) | response of the recN promoter (E. coli MG1655; RNA-Seq mean fold change) | response of the sulA promoter (E. coli MG1655; RNA-Seq mean fold change) | response of the umuD promoter (E. coli MG1655; RNA-Seq mean fold change) | response of the cusC promoter (E. coli MG1655; RNA-Seq mean fold change) | response of the cusR promoter (E. coli MG1655; RNA-Seq mean fold change) | response of the zntA promoter (E. coli MG1655; RNA-Seq mean fold change) | response of the mntH promoter (E. coli MG1655; RNA-Seq mean fold change) | response of the shiA promoter (E. coli MG1655; RNA-Seq mean fold change) | response of the ybiI promoter (E. coli MG1655; RNA-Seq mean fold change)
1 | [As] [Arsenic] | −0.18 | 0.24 | −0.05 | 0.25 | 0.33 | responds specifically and monotonically to increasing concentrations | 14 | 3 | smaller response | – | – | – | – | – | – | – | – | – | –
2 | [Cr+6] [Chromium(VI)] | 0.62 | 1.00 | −0.06 | −0.96 | 1.69 | – | 377 | 270 | equal magnitude but more rapid response | sensitive | only shows sensitivity to high concentrations | only shows sensitivity to high concentrations | only shows sensitivity to high concentrations | – | – | – | – | – | –
3 | [Cu] [Copper] | −0.09 | −0.08 | 1.00 | 0.16 | −0.17 | – | 77 | 110 | smaller response | – | – | – | – | responds monotonically to increasing concentrations | only shows sensitivity to high concentrations | – | – | – | –
4 | [Cd] [Cadmium] | 1.00 | −0.02 | −0.08 | −0.26 | 0.46 | – | 38 | 132 | much larger response | – | – | – | – | – | – | responds monotonically to increasing concentrations | – | – | –
5 | [Pb] [Lead] | 0.06 | 0.01 | −0.05 | 0.12 | 1.00 | – | 489 | 99 | responding | – | – | – | – | – | – | – | responds to high concentrations | responds to high concentrations | responds specifically and monotonically to increasing concentrations
6 | Mercury | −0.09 | 0.58 | −0.05 | 1.00 | 1.44 | – | 218 | 165 | – | – | – | – | – | – | – | – | – | – | –

From US20220057378A1, “MICROBIAL MICROFLUIDIC BIOSENSOR” (priority 2015, published 2022)
